From article PMC10011747, “Targeting androgen receptor and the variants by an orally bioavailable Proteolysis Targeting Chimeras compound in castration resistant prostate cancer” (eBioMedicine, 2023)

Tests used:
Type in all cases: cell-based, human
full-length AR = test: AR degradation by western blot in prostate cancer cell lines; conditions: 24 h treatment; LNCaP, CWR22Rv1, VCaP
Procedure: To obtain total lysates, cells were lysed in RIPA buffer (50 mM Tris–HCl pH 8.0, 150 mM NaCl, 1% NP-40, 0.5% Na-deoxycholate, 0.5% SDS plus protease inhibitors). The lysates were resolved by SDS-polyacrylamide gel electrophoresis, and the protein expression was analyzed by western blotting using primary antibodies against AR (Millipore Cat# 06-680, RRID:AB_310214), AR-V7 (RevMAb Biosciences Cat# 31-1109-00, RRID:AB_2716436), GAPDH (Cell Signaling Technology Cat# 2118, RRID:AB_561053) and Actin (Sigma–Aldrich Cat# A5441, RRID:AB_476744). pLenti4/TO/Flag-AR or pLenti4/TO/Flag-TC-AR plasmid was co-transfected with HA-ubiquitin plasmid into 293T cells. 24 h after transfection, the cells were treated with 10 μM of the PROTAC compounds for 16 h, followed by 4-h treatment of 5 μM MG132. The cells were lysed with lysis buffer (50 mM Tris–HCl pH7.5, 150 mM NaCl, 0. 5% Triton X-100, 10% glycerol, 1 mM EDTA plus protease inhibitors) containing 1 ng/mL of N-ethylmaleimide, followed by immunoprecipitation with anti-Flag M2 (Sigma–Aldrich Cat# F3165, RRID:AB_259529) antibody. The ubiquitinated AR was then detected by western blotting using anti-HA (Sigma–Aldrich Cat# H3663, RRID:AB_262051) antibody.
Fig. 1 PROTAC-based AR degraders ITRI-90, ITRI-125 and ITRI-126 reduce AR and AR-V7 proteins in prostate cancer cell lines. (a) Chemical structure of the PROTAC AR degraders. (b) Representative western blots of AR protein levels in LNCaP, CWR22Rv1 and VCaP cells treated with the PROTAC degraders for 24 h. AR was detected by N-terminal antibody which also detects C-terminal truncated AR-V(ΔLBD) in CWR22Rv1 cells. AR-V7 specific antibody was used for AR-V7 detection. 4%–12% gradient gel was used to separate different species of AR-V(ΔLBD) near 75 kDa in CWR22Rv1 cell lysates. DC50 indicating the concentration required to achieve 50% degradation, was calculated based on normalized full-length AR and AR-V7 band intensity. Dmax is the maximum degradation achieved at 20 μM compound treatment. TEXT PRINTED IN THE PICTURE: (a) ITRI-90: AR DC50 (μM) LNCaP: 2.12 ± 0.93; AR DC50 (μM) CWR22Rv1: 5.73 ± 2.28; AR DC50 (μM) VCaP: 8.67 ± 4.87; AR-V7 DC50 (μM) CWR22Rv1: 4.72 ± 2.52; AR-V7 DC50 (μM) VCaP: 0.29 ± 0.15; AR Dmax (%) LNCaP: 88; AR Dmax (%) CWR22Rv1: 98; AR Dmax (%) VCaP: 90; AR-V7 Dmax (%) CWR22Rv1: 100; AR-V7 Dmax (%) VCaP: 63 | (a) ITRI-125: AR DC50 (μM) LNCaP: 6.10 ± 4.43; AR DC50 (μM) CWR22Rv1: 6.64 ± 1.87; AR DC50 (μM) VCaP: 9.05 ± 3.75; AR-V7 DC50 (μM) CWR22Rv1: 1.89 ± 1.06; AR-V7 DC50 (μM) VCaP: 0.52 ± 0.37; AR Dmax (%) LNCaP: 71; AR Dmax (%) CWR22Rv1: 96; AR Dmax (%) VCaP: 85; AR-V7 Dmax (%) CWR22Rv1: 99; AR-V7 Dmax (%) VCaP: 67 | (a) ITRI-126: AR DC50 (μM) LNCaP: 3.41 ± 3.13; AR DC50 (μM) CWR22Rv1: 0.11 ± 0.02; AR DC50 (μM) VCaP: 0.851 ± 0.43; AR-V7 DC50 (μM) CWR22Rv1: 0.011 ± 0.003; AR-V7 DC50 (μM) VCaP: 0.43 ± 0.19; AR Dmax (%) LNCaP: 99; AR Dmax (%) CWR22Rv1: 74; AR Dmax (%) VCaP: 94; AR-V7 Dmax (%) CWR22Rv1: 91; AR-V7 Dmax (%) VCaP: 82

[1] = test system: AR and AR-V7 target gene expression; test: qRT-PCR of AR and AR-V7 target genes; conditions: CWR22Rv1 cells, 24 h, 5 μM
Procedure: TRIzol™ Reagent (Thermo Fisher Scientific) was used to isolate total RNA, and iScript™ cDNA Synthesis Kit (Bio-Rad, Hercules, CA, USA) was used for cDNA synthesis. The cDNA expression level of each gene was then quantified by the Bio-Rad CFX Real-Time PCR detection system using iTaq Universal SYBR Green Supermix (Bio-Rad) and primers listed in Table S1. All samples were tested in triplicate, and the expression levels were normalized against RPL13A and GAPDH cDNA levels using Bio-Rad CFX software.

VCaP cells = test: MTT proliferation, VCaP with enzalutamide; conditions: 20 μM enzalutamide, with or without 10 μM PROTAC, up to 8 days
Procedure: Cells were seeded in triplicate in 96-well plates 1 day prior to drug treatment for all assays. For viability test and IC50 assessment, the alamarBlue™ Cell Viability Reagent (Thermo Fisher Scientific) was added to cells 7 days after PROTAC treatment, followed by fluorescence detection as the manufacturer instructed. The IC50 was calculated by dose-inhibition regression. For proliferation monitoring, 2, 4, 6 and 8 days after PROTAC treatment (day 0), viable cells were detected by MTT Cell Proliferation Kit I (Sigma–Aldrich) according to the manufacturer's instructions. Cellular caspase activity was measured by Caspase-Glo 3/7 Assay System (Promega) 1 or 2 days after the drug treatment.
Fig. 6 AR degraders effectively diminish enzalutamide-induced AR-V expression and inhibit enzalutamide-resistant cell growth. (a) VCaP cells were treated with 20 μM enzalutamide (Enz) for 2 days, followed by one-day treatment of mock or 10 μM PROTAC. Full-length AR and AR-V(ΔLBD) was detected by N-terminal AR antibody (top) or AR-V7 specific antibody (middle). […] Cell proliferation was detected by MTT every 2 days after PROTAC treatment, up to 8 days. […] (c) AR protein levels in C4-2B and C4-2B/Enz^R cells treated with mock or 10 μM PROTAC compounds for 1 day were detected by anti-N-terminal-AR and anti-AR-V7 antibodies. […] Cell growth was monitored by MTT every 2 days up to 8 days. […]

## Cc1ncsc1-c1ccc(CNC(=O)[C@@H]2C[C@H](O)CN2C(=O)[C@@H](NC(=O)COCCCCOc2ccc(C3CCN(C4=Nn5c(nnc5C(F)(F)F)CC4)CC3)cc2)C(C)(C)C)cc1 [ITRI-90 inactive, (2S,4S)-1-((S)-3,3-dimethyl-2-(2-(4-(4-(1-(3-(trifluoromethyl)-7,8-dihydro-[1,2,4]triazolo[4,3-b]pyridazin-6-yl)piperidin-4-yl)phenoxy)butoxy)acetamido)butanoyl)-4-hydroxy-N-(4-(4-methylthiazol-5-yl)benzyl)pyrrolidine-2-carboxamide]
full-length AR
  AR protein expression (negative control degraders): did not inhibit the AR protein expression

## CNC(=O)c1ccc(N2C(=S)N(c3ccc(C#N)c(C(F)(F)F)c3)C(=O)C2(C)C)cc1F [enzalutamide]
[1]
  expression of AR-V7 target genes: specifically inhibited by the degraders but not enzalutamide
VCaP cells
  VCaP proliferation (MTT): modestly inhibits VCaP proliferation

## CN1C(=O)CCC(N2Cc3c(NC(=O)COCCCCOc4ccc(C5CCN(C6=Nn7c(nnc7C(F)(F)F)CC6)CC5)cc4)cccc3C2=O)C1=O (stereo not shown) [ITRI-126 inactive, N-(2-(1-methyl-2,6-dioxopiperidin-3-yl)-1-oxoisoindolin-4-yl)-2-(4-(4-(1-(3-(trifluoromethyl)-7,8-dihydro-[1,2,4]triazolo[4,3-b]pyridazin-6-yl)piperidin-4-yl)phenoxy)butoxy)acetamide]
full-length AR
  AR protein expression (negative control degraders): did not inhibit the AR protein expression
